Reference: patent US20230279020A9, “CARM1 INHIBITORS AND USES THEREOF” (Epizyme, Inc., priority 2013, published 2023)

Biological target: Human CARM1 (PRMT4) (Homo sapiens (Human), UniProt Q86X55)
Experiment: CARM1 enzyme assay on peptide substrate (3H-SAM Flashplate)
Settings: Biochemical potencies, classification codes; read-out: Biochem IC50

Human CARM1 (PRMT4), sequence (Q86X55 other isoform, or with tags, fused parts or gaps isoform Q86X55-1): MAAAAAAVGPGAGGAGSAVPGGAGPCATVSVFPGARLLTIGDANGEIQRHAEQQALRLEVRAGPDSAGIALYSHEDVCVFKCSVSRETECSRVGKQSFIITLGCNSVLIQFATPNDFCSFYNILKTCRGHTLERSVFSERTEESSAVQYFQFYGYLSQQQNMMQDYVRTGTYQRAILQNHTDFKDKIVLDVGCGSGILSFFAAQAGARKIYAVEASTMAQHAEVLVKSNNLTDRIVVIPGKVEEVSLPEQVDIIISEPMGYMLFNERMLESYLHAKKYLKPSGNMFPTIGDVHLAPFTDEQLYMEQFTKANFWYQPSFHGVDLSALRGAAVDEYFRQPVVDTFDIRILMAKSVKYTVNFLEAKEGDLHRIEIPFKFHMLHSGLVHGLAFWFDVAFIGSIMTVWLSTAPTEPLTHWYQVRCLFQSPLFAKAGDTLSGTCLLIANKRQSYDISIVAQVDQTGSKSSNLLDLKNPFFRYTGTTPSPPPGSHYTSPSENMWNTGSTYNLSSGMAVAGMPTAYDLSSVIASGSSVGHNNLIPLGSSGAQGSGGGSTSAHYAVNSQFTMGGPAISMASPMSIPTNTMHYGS

Row | IC50 [nM] | Structure (SMILES)
1 | < 100 | CNC[C@H](O)COc1ccc(Cl)c(-c2nc(-c3c(C)noc3C)c(C)c(N(C)[C@H]3C[C@@](C)(OC)C3)n2)c1 [Example 95-3]
2 | < 100 | CNCC(O)COc1cccc(-c2nc(NC3CCOCC3)c(F)c(-c3c(C)noc3C)n2)c1 (stereo not drawn) [Example 96-1a]
3 | < 100 | CNC[C@H](O)COc1ccc(Cl)c(-c2nc(NCC3COCCO3)c(C)c(-c3c(C)noc3C)n2)c1 (stereo partly drawn) [Example 96-3]
4 | < 100 | CNCC(O)COc1cccc(-c2nc(-c3c(C)noc3C)c(F)c(N3CCN(C(=O)OC)CC3)n2)c1 (stereo not drawn) [Example 97-1a]
5 | < 100 | CNCC(O)COc1ccc(Cl)c(-c2nc(NC3CCOCC3)c(C)c(-c3c(C)nsc3C)n2)c1 (stereo not drawn) [Example 97-3]
6 | < 100 | CNCC(O)COc1cccc(-c2nc(-c3c(C)noc3C)cc(N(CCOC)C3CCOCC3)n2)c1 (stereo not drawn) [Example 98-1a]
7 | < 100 | CNC[C@@H](O)COc1ccc(F)c(-c2nc(N[C@H]3CCN(C4CC4)C[C@H]3F)c(C)c(-c3c(C)noc3C)n2)c1 [Example 98-3]
8 | < 100 | CNCC(O)COc1cccc(-c2nc(NCCCN3CCCCCC3=O)cc(-c3c(C)noc3C)n2)c1 (stereo not drawn) [Example 99-1a]
9 | < 100 | CNC[C@H](O)COc1ccc(F)c(-c2nc(N[C@H]3CCN(C4CC4)C[C@H]3F)c(C)c(-c3c(C)noc3C)n2)c1 [Example 99-3]
10 | < 100 | CNCC(O)COc1cccc(-c2nc(-c3c(C)noc3C)cc(N3C[C@H]4C[C@@H]3CN4S(C)(=O)=O)n2)c1 (stereo partly drawn) [Example 100-1a]
11 | < 100 | CNC[C@@H](O)COc1ccc(Cl)c(-c2nc(N[C@@H]3CCOC3)c(C)c(-c3c(C)noc3C)n2)c1 [Example 100-3]
12 | < 100 | CNCC(O)COc1cccc(-c2nc(NC3(C)CCOCC3)c(C)c(-c3c(C)noc3C)n2)c1 (stereo not drawn) [Example 101-1a]
13 | < 100 | CNC[C@@H](O)COc1ccc(Cl)c(-c2nc(N[C@@H]3CCN(C(=O)OC)[C@@H](C)C3)c(C)c(-c3c(C)noc3C)n2)c1 [Example 101-3]
14 | < 100 | CNCC(O)COc1cccc(-c2nc(NC3CCN(C(=O)OC)CC3)cc(-c3c(C)noc3C)n2)c1 (stereo not drawn) [Example 102-1a]
15 | < 100 | CNC[C@@H](O)COc1ccc(Cl)c(-c2nc(N[C@H]3CCN(C(=O)OC)[C@H](C)C3)c(C)c(-c3c(C)noc3C)n2)c1 [Example 102-3]
16 | < 100 | CNCC(O)COc1cccc(-c2nc(-c3c(C)noc3C)cc(N3CCN(CCF)[C@@H](C)C3)n2)c1 (stereo partly drawn) [Example 103-1a]
17 | < 100 | CNC[C@H](O)COc1ccc(Cl)c(-c2nc(N[C@H]3CCN(C(=O)OC)[C@H](C)C3)c(C)c(-c3c(C)noc3C)n2)c1 [Example 103-3]
18 | < 100 | CNCC(O)COc1cccc(-c2nc(-c3c(C)noc3C)cc(N3CCN(CC(F)(F)F)[C@@H](C)C3)n2)c1 (stereo partly drawn) [Example 104-1a]
19 | < 100 | CNC[C@@H](O)COc1ccc(Cl)c(-c2nc(NC3CCN(C(=O)OC)CC3)c(C)c(-c3c(C)noc3C)n2)c1 [Example 104-3]
20 | < 100 | CCOC(=O)N1CCC(Nc2nc(-c3cc(OC[C@@H](O)CNC)ccc3Cl)nc(-c3c(C)noc3C)c2C)CC1 [Example 105-3]
21 | < 100 | CCNC(=O)N1CCN(c2nc(-c3cccc(OCC(O)CNC)c3)nc(-c3c(C)noc3C)c2C)CC1 (stereo not drawn) [Example 106-1a]
22 | < 100 | CNC[C@H](O)COc1ccc(F)c(-c2nc(-c3c(C)noc3C)c(C)c(N3CCC4(CCN(C(=O)OC)C4)C3)n2)c1 (stereo partly drawn) [Example 106-3]
23 | < 100 | CNCC(O)COc1cccc(-c2nc(-c3c(C)noc3C)c(C)c(N3CCN(C(=O)C(F)F)CC3)n2)c1 (stereo not drawn) [Example 107-1a]

Row | IC50 [nM] | Structure (SMILES)
24 | < 100 | CNCC(O)COc1cccc(-c2nc(-c3c(C)noc3C)c(C)c(N3CCN(C(=O)C4CCOCC4)CC3)n2)c1 (stereo not drawn) [Example 108-1a]
25 | < 100 | CNC[C@@H](O)COc1ccc(Cl)c(-c2nc(-c3c(C)noc3C)c(C)c(N3CC4(CCN(C5CC5)CC4)C3)n2)c1 [Example 108-3]
26 | < 100 | CNCC(O)COc1cccc(-c2nc(-c3c(C)noc3C)cc(N3C[C@H]4C[C@@H]3CN4)n2)c1 (stereo partly drawn) [Example 109-1a]
27 | < 100 | CNCC(O)COc1cccc(-c2nc(-c3c(C)noc3C)c(C)c(N3CCN4C(=O)OC[C@@H]4C3)n2)c1 (stereo partly drawn) [Example 110-1a]
28 | < 100 | CNC[C@@H](O)COc1ccc(Cl)c(-c2nc(N[C@H]3C[C@@](C)(OC)C3)c(C)c(-c3c(C)noc3C)n2)c1 [Example 110-3]
29 | < 100 | CNCC(O)COc1cccc(-c2nc(-c3c(C)noc3C)c(C)c(N3CC[C@@H](S(C)(=O)=O)C3)n2)c1 (stereo partly drawn) [Example 111-1a]
30 | < 100 | CNC[C@@H](O)COc1ccc(Cl)c(-c2nc(N[C@H]3CCOC3)c(C)c(-c3c(C)noc3C)n2)c1 [Example 111-3]
31 | < 100 | CNCC(O)COc1cccc(-c2nc(-c3c(C)noc3C)cc(-c3cnc4cnccn34)n2)c1 (stereo not drawn) [Example 112-1a]
32 | < 100 | CCOC(=O)N1CC[C@@H](Nc2nc(-c3cc(OC[C@H](O)CNC)ccc3Cl)nc(-c3c(C)noc3C)c2C)C1 [Example 112-3]
33 | < 100 | CNCC(O)COc1cccc(-c2nc(NCC3(O)CCOCC3)c(C)c(-c3c(C)noc3C)n2)c1 (stereo not drawn) [Example 114-1a]
34 | < 100 | CNC[C@@H](O)COc1ccc(F)c(-c2nc(-c3c(C)noc3C)c(C)c(N3Cc4cccnc4C3)n2)c1 [Example 114-3]
35 | < 100 | CNCC(O)COc1cccc(-c2nc(NCC3(C)CCOCC3)c(C)c(-c3c(C)noc3C)n2)c1 (stereo not drawn) [Example 115-1a]
36 | < 100 | CNC[C@@H](O)COc1ccc(Cl)c(-c2nc(-c3c(C)noc3C)c(C)c(N3CCC4(CC3)CN(C(=O)OC)C4)n2)c1 [Example 115-3]
37 | < 100 | CNC[C@@H](O)COc1ccc(Cl)c(-c2nc(OC[C@H]3CCCO3)c(C)c(-c3c(C)noc3C)n2)c1 [Example 116-3]
38 | < 100 | CNC[C@@H](O)COc1ccc(Cl)c(-c2nc(OC[C@H]3CCOC3)c(C)c(-c3c(C)noc3C)n2)c1 [Example 117-3]
39 | < 100 | CNCC(O)COc1cccc(-c2nc(NC3CCN(C(=O)OC)CC3)c(C)c(-c3c(C)noc3C)n2)c1 (stereo not drawn) [Example 118-1a]
40 | < 100 | CNC[C@@H](O)COc1ccc(Cl)c(-c2nc(-c3c(C)noc3C)c(C)c(N3CC4(CCOCC4)C3)n2)c1 [Example 118-3]
41 | < 100 | CNC[C@@H](O)COc1ccc(Cl)c(-c2nc(-c3c(C)noc3C)c(C)c(N3CC4(CCCOC4)C3)n2)c1 [Example 119-3]
42 | < 100 | CNCC(O)COc1cccc(-c2nc(-c3c(C)noc3C)cc(N3CCN(C(=O)N(C)C)CC3)n2)c1 (stereo not drawn) [Example 120-1a]
43 | < 100 | CNC[C@@H](O)COc1ccc(Cl)c(-c2nc(-c3c(C)noc3C)c(C)c(N3CC4(CCOC4)C3)n2)c1 [Example 120-3]
44 | < 100 | CNCC(O)COc1cccc(-c2nc(-c3c(C)noc3C)c(C)c(N3CCN(C(=O)OCCF)CC3)n2)c1 (stereo not drawn) [Example 121-1a]
45 | < 100 | CNC[C@@H](O)COc1ccc(Cl)c(-c2nc(-c3c(C)noc3C)c(C)c(N3CC4(CCCO4)C3)n2)c1 [Example 121-3]
46 | < 100 | CNC[C@@H](O)COc1ccc(Cl)c(-c2nc(-c3c(C)noc3C)c(C)c(N3CCc4nn(C)cc4C3)n2)c1 [Example 122-3]

Row | Structure (SMILES) | IC50 [nM]
47 | CNCC(O)COc1cccc(-c2nc(-c3c(C)noc3C)c(C)c(N3C[C@H]4CC[C@@H](C3)N4C)n2)c1 (stereo partly drawn) [Example 116-1a] | < 100
48 | CNCC(O)COc1cccc(-c2nc(-c3c(C)noc3C)c(C)c(N3[C@@H]4CC[C@H]3CN(C)C4)n2)c1 (stereo partly drawn) [Example 117-1a] | < 100
